In data set [1] the test system is ultraviolet erythema in guinea pigs. Nature of the data set: Erythema blocking assay (anti-inflammatory activity, ultraviolet erythema, oral). The following applies: Cavia porcellus, read-out: Erythema Blocking Assay Oral ED50. The data set is classed as in vivo, Albino guinea pigs. The protocol: Various compounds within the scope of this invention were tested for anti-inflammatory activity in an erythema blocking assay which involved the following test procedure.
A modification of the Winder et al. (1958) method [Winder, C. V., Wax, J., Burr, V. and Posiere, C. E.: "A Study of Pharmacological Influences on Ultraviolet Erythema in Guinea Pigs", Arch. Int. Pharmacodyn., 116, 261, 1958] was used to measure anti-inflammatory activity of these compounds. Albino guinea pigs of either sex weighing 225-300 grams were shaved on the back and chemically (NAIR®, Lotion Hair Remover, Carter Products, N. Y., N. Y.) depitated, 18-20 hours before exposure to ultraviolet light. The animals were fasted overnight. Immediately after the guinea pigs were treated with a test compound, gummed notebook paper reinforcements were placed on their backs, and they were exposed to a high intensity ultraviolet light for seven seconds. The ultraviolet light source was a Hanovia Lamp (Kromayer-Model 10) which was placed in contact with the skin of the guinea pig's back. After exposure, the reinforcements were removed and their backs wiped clean with a water soaked gauze sponge. The unexposed area under the reinforcements provided an area of contrast for grading the erythema. The animals were randomized and placed in clear plastic partitioned holders 10 × 20 cm. wide and 15 cm. high. Beginning one hour after exposure and thereafter at half-hour intervals for another one and one-half hours, the degree of resulting erythema was graded by an arbitrary scoring system based upon the degree of contrast and redness formed. Anti-inflammatory agents delay the development of the erythema and therefore have their greatest effect at the initial grading periods. Therefore, the scores were weighed by a factor of 4, 3, 2, and 1 at the 1.0-, 1.5-, 2.0-, and 2.5-hour scoring times, respectively. The erythema was graded as follows:
Score Appearance of Exposed Area
______________________________________
0 No redness and no contrast
1 Slight redness with a faint reinforcement outline
2 Slight to moderate redness with a distinct outline
3 Marked redness with a distinct circular outline
Total scores from each treatment group of five or six guinea pigs were compared to the control treatment and the percent inhibition calculated as follows:
100 × Control - Treatment/Control = Percent Inhibition
Test compounds were prepared in a suspension of 1 percent methylcellulose in water and administered orally. Guinea pigs were treated orally with 1.0 cc./kg. of the suspensions. Control animals received 1.0 cc./kg. of a 1 percent methylcellulose suspension. The dose that produces a 50 percent inhibition of the erythemic response (ED50) was calculated. The ED50 results in (mg./kg.) are recorded in the following table: […]

The subject of data set [2] is acetic acid-induced writhing in mice. Nature of the data set: Analgesic writhing test (inhibition of acetic acid-induced writhing). Format: in vivo, Standard strain albino male mice. The following applies: Mus musculus, sc, read-out: Analgesic Writhing Test Subcutaneous ED50. The protocol: A method similar to that reported by Koster, R., et al., "Acetic Acid for Analgesic Screening" Fed.
Standard strain albino male mice, weighing 16-18 grams, were administered the treatments either subcutaneously or by gastric lavage. At various times after treatment, writhing was induced by the intraperitoneal administration of 60 mg./kg. of acetic acid (0.6 percent). Each treatment group consisted of 6 mice. The total number of writhes for the treatment group were counted in a 10-minute observation period starting 5 minutes after the acetic acid administration. The treatment totals were compared to controls and a percent inhibition calculated as follows:
Percent Inhibition = 100 - (Treatment total/Control Total × 100)
The ED50 values in the table which follows represents the doses in mg. of compound/kg. of body weight which will produce a 50 percent inhibition of the frequency of writhing.
(In general: In writhing tests, fewer writhes than in controls are read as antinociception.)

Another data set is described as follows: pK'a determination. The data set is classed as physicochemical.
Where [3] appears, read: oral, guinea pigs, 50 percent inhibition of erythemic response, single dose in 1 percent methylcellulose, scored 1.0-2.5 hours.
The mark [4] stands for this setting: subcutaneous, mice, 50 percent inhibition of frequency of writhing, 60 mg./kg. acetic acid intraperitoneal.

This note sets out measurements from US4145557A, “(Phenoxyphenyl) alkyl acetates, propionates, and carbamates” (Eli Lilly and Company, priority 1977, dated 1979).

SMILES strings stand for the structures. Counter-ions that a name gives are not always drawn. Like-named read-outs stand apart in the source and are kept apart here.

With `CC(CNCC1CC1)c1cccc(Oc2ccccc2)c1` (stereo not drawn), in data set [1] (setting [3]), the 50% effective dose (ED50) was found to be 20 mg/kg.

For `CC(CNCCc1ccccc1)c1cccc(Oc2ccccc2)c1` (stereo not drawn), in data set [1] (setting [3]), the 50% effective dose (ED50) stood at 15 mg/kg.

With `CC(CO)c1cccc(Oc2ccccc2)c1` (stereo not drawn), the ED50 in data set [1] (setting [3]) stood at 2 mg/kg.

With `CC(=O)OCC(C)c1cccc(Oc2ccccc2)c1` (stereo not drawn), the ED50 in data set [1] (setting [3]) was determined as 8 mg/kg.

For the compound `CCC(=O)OCC(C)c1cccc(Oc2ccccc2)c1` (stereo not drawn), the ED50 in data set [1] (setting [3]) turned out to be 10 mg/kg.

Consider `CNC(=O)OCC(C)c1cccc(Oc2ccccc2)c1` (stereo not drawn), for which the ED50 in data set [1] (setting [3]) stood at 40 mg/kg.

For the compound `CC(C(N)=O)c1cccc(Oc2ccccc2)c1` (stereo not drawn), in data set [1] (setting [3]), the ED50 was 3 mg/kg.

In the case of `CNC(=O)C(C)c1cccc(Oc2ccccc2)c1` (stereo not drawn), the ED50 in data set [1] (setting [3]) stood at 30 mg/kg.

Consider `CC(C(=O)N(C)C)c1cccc(Oc2ccccc2)c1` (stereo not drawn), for which, in data set [1] (setting [3]), the ED50 came to 25 mg/kg.

Turning to `CC(C(=O)NO)c1cccc(Oc2ccccc2)c1` (stereo not drawn), the ED50 in data set [1] (setting [3]) is 2 mg/kg.

On to `CC(C(=O)NCC(=O)O)c1cccc(Oc2ccccc2)c1` (stereo not drawn), for which the ED50 in data set [1] (setting [3]) amounted to 5 mg/kg.

For the compound `CCC(CNC)c1cccc(Oc2ccccc2)c1` (stereo not drawn), the ED50 in data set [2] (setting [4]) is 20 mg/kg.

For the compound `O=C(O)Cc1cccc(Oc2ccccc2)c1` [2-(3-phenoxyphenyl)acetic acid], the pKa in the data set “pK'a determination” was determined as 6.9.

Compound `CC(C(=O)O)c1cccc(Oc2ccccc2)c1` (stereo not drawn) [2-(3-phenoxyphenyl)propionic acid] yielded a pKa in the data set “pK'a determination” of 7.3.

`CC(CCN)c1cccc(Oc2ccccc2)c1` (stereo not drawn) [3-(3-Phenoxyphenyl)butylamine hydrochloride] displayed a pKa in “pK'a determination” of 10.

In “pK'a determination”, `CC(c1cccc(Oc2ccccc2)c1)c1nnn[nH]1` (stereo not drawn) [5-(α-Methyl-3-phenoxybenzyl)-1H-tetrazole] gave a pKa of 5.8.

As for `CC(=O)Oc1ccccc1C(=O)O` [A.S.A., reference compound], the figures for the ED50 in data set [2] and in data set [1] (po) were 20 mg/kg and 50 mg/kg, respectively.

Regarding `NCCc1cccc(Oc2ccccc2)c1` [CH2 CH2 NH2 . HCl], the ED50 was found to be 4 mg/kg in data set [2] and 75 mg/kg in data set [1] (setting [3]).

`CN(C)CCc1cccc(Oc2ccccc2)c1.Cl` [N,N-Dimethyl-2-(3-phenoxyphenyl)ethylamine hydrochloride] yielded a pKa in “pK'a determination” of 8.5. Also, in data set [1] (po), the ED50 stood at 7 mg/kg.

The compound `C=CCNCC(C)c1cccc(Oc2ccccc2)c1` (stereo not drawn) [N-Allyl-2-(3-phenoxyphenyl)propylamine hydrochloride] yielded a pKa in “pK'a determination” of 8.5.

For `CC(CNC1CC1)c1cccc(Oc2ccccc2)c1` (stereo not drawn) [N-Cyclopropyl-2-(3-phenoxyphenyl)propylamine hydrochloride], in the data set “pK'a determination”, the pKa came to 7.9.

In the case of `CNCCc1cccc(Oc2ccccc2)c1.Cl` [N-Methyl-2-(3-phenoxyphenyl)ethylamine hydrochloride], the ED50 in data set [2] came out at 25 mg/kg; in data set [1] (po), 10 mg/kg. In “pK'a determination”, the pKa was 9.7.

The compound `CNCCC(C)c1cccc(Oc2ccccc2)c1` (stereo not drawn) [N-Methyl-3-(3-phenoxyphenyl)butylamine hydrochloride] showed a pKa in “pK'a determination” of 10.

With `CC(CN(C)CCc1ccccc1)c1cccc(Oc2ccccc2)c1` (stereo not drawn) [N-Methyl-N-(2-phenylethyl)-2-(3-phenoxyphenyl)propylamine hydrochloride], the pKa in “pK'a determination” turned out to be 7.7.

For the compound `CC(C)=CCN(C)CC(C)c1cccc(Oc2ccccc2)c1` (stereo not drawn) [N-Methyl-N-(3-methylbut-2-enyl)-2-(3-phenoxyphenyl)propylamine hydrochloride], the pKa in “pK'a determination” worked out at 8.5.

Compound `C=CCN(C)CC(C)c1cccc(Oc2ccccc2)c1` (stereo not drawn) [N-Methyl-N-allyl-2-(3-phenoxyphenyl)propylamine hydrochloride] gave a pKa in “pK'a determination” of 7.6.

On to `CC(CN(C)C1CC1)c1cccc(Oc2ccccc2)c1` (stereo not drawn) [N-Methyl-N-cyclopropyl-2-(3-phenoxyphenyl)propylamine hydrochloride], for which, in the data set “pK'a determination”, the pKa came to 6.9.

In turn, `CC(CN(C)CC1CC1)c1cccc(Oc2ccccc2)c1` (stereo not drawn) [N-Methyl-N-cyclopropylmethyl-2-(3-phenoxyphenyl)propylamine hydrochloride] registered a pKa in “pK'a determination” of 8.3.

In the case of `CC(CN)c1cccc(Oc2ccccc2)c1` (stereo not drawn) [drawing 17], the ED50 in data set [1] (setting [3]) worked out at 1 mg/kg.

Take `CNCC(C)c1cccc(Oc2ccccc2)c1` (stereo not drawn) [drawing 18]: the ED50 in data set [1] (setting [3]) was determined as 1 mg/kg.

Take `CC(CN(C)C)c1cccc(Oc2ccccc2)c1` (stereo not drawn) [drawing 19]: the ED50 in data set [1] (setting [3]) turned out to be 8 mg/kg.

On to `CC(CNC1CC1)c1cccc(Oc2ccccc2)c1` (stereo not drawn) [drawing 20], for which the ED50 in data set [1] (setting [3]) was found to be 9 mg/kg.

Turning to `CC(CN(C)C1CC1)c1cccc(Oc2ccccc2)c1` (stereo not drawn) [drawing 22], the 50% effective dose (ED50) in data set [1] (setting [3]) was found to be 3 mg/kg.

With `CC(CN(C)CC1CC1)c1cccc(Oc2ccccc2)c1` (stereo not drawn) [drawing 23], the ED50 in data set [1] (setting [3]) was found to be 3 mg/kg.

`C=CCNCC(C)c1cccc(Oc2ccccc2)c1` (stereo not drawn) [drawing 24]: the ED50 in data set [1] (setting [3]) amounted to 10 mg/kg.

`C=CCN(C)CC(C)c1cccc(Oc2ccccc2)c1` (stereo not drawn) [drawing 25]: the ED50 in data set [1] (setting [3]) was 3 mg/kg.

In the case of `CC(C)=CCN(C)CC(C)c1cccc(Oc2ccccc2)c1` (stereo not drawn) [drawing 26], the ED50 in data set [1] (setting [3]) was 5 mg/kg.

`CC(CN(C)CCc1ccccc1)c1cccc(Oc2ccccc2)c1` (stereo not drawn) [drawing 28]: the ED50 in data set [1] (setting [3]) is 5 mg/kg.

For the compound `CC(CCN)c1cccc(Oc2ccccc2)c1` (stereo not drawn) [drawing 29], the median effective dose (ED50) in data set [1] (setting [3]) was 2 mg/kg.

In the case of `CNCCC(C)c1cccc(Oc2ccccc2)c1` (stereo not drawn) [drawing 30], the ED50 in data set [1] (setting [3]) was found to be 5 mg/kg.

Consider `CC(c1cccc(Oc2ccccc2)c1)c1nnn[nH]1` (stereo not drawn) [drawing 36], for which the 50% effective dose (ED50) in data set [1] (setting [3]) came out at 10 mg/kg.

On to `CN(C)CCc1cccc(Oc2ccccc2)c1` [drawing 41], for which, in data set [2], the ED50 came to 35 mg/kg.

Regarding `CC(CN)c1cccc(Oc2ccccc2)c1` (stereo not drawn) [drawing 42], the median effective dose (ED50) in data set [2] (setting [4]) was 20 mg/kg.

As to `CNCC(C)c1cccc(Oc2ccccc2)c1` (stereo not drawn) [drawing 43], the median effective dose (ED50) in data set [2] (setting [4]) was found to be 20 mg/kg.

Turning to `CC(CN(C)C)c1cccc(Oc2ccccc2)c1` (stereo not drawn) [drawing 44], the ED50 in data set [2] (setting [4]) came to 10 mg/kg.

Turning to `CC(CN(C)CC1CC1)c1cccc(Oc2ccccc2)c1` (stereo not drawn) [drawing 46], the ED50 in data set [2] (setting [4]) was under 50 mg/kg.

By ED50 is commonly meant the midpoint of the dose-response relation. The pKa is the negative logarithm of the acid dissociation constant. A low value points to a stronger acid or weaker base.
